Here are results for 45 compounds from US9533952B2, “N-prop-2-ynyl carboxamide derivatives and their use as TRPA1 antagonists” (Orion Corporation, priority 2012, dated 2017).

Usually IC50 stands for the concentration at which inhibition is half-maximal. Low readings indicate greater potency, high ones weaker potency.

This assay has as its target TRPA1 (Homo sapiens, UniProt O75762). As to the kind of experiment: Determination of TRPA1 activity in vitro (TRPA1 antagonism in vitro). Type of assay: cell-based. To be noted: procedure of Wei et al., Anesthesiology 111 (2009) 147-154.

Chain of TRPA1 (O75762 whole entry): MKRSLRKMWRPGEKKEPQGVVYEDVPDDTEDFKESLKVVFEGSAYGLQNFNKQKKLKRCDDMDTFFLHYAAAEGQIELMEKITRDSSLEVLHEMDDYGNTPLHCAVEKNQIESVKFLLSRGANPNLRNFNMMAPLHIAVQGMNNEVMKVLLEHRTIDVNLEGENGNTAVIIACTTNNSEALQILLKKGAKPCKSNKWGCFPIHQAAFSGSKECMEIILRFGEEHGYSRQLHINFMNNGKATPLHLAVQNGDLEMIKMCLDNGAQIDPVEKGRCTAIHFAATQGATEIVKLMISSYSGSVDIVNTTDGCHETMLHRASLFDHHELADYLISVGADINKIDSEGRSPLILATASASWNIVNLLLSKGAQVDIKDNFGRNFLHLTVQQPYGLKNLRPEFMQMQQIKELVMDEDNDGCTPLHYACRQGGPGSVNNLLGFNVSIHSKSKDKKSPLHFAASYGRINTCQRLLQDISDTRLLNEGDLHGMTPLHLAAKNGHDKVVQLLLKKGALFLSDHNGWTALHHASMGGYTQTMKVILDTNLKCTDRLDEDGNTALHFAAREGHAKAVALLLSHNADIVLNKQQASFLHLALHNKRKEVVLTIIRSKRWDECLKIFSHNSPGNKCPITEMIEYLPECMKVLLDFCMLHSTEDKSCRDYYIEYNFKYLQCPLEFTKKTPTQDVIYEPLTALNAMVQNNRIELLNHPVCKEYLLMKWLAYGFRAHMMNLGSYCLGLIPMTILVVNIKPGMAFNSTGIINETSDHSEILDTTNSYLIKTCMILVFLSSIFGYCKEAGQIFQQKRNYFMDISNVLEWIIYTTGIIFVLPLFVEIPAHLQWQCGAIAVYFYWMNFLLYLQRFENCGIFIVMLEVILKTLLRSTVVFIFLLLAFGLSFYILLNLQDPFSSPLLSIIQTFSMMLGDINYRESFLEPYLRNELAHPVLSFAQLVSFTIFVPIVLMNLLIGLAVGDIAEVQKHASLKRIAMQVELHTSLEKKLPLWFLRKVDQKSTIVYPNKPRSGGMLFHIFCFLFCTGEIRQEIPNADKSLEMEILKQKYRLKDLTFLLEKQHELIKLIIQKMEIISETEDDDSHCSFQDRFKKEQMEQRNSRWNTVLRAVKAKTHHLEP

`C#CC(C)(C)NC(=O)c1cccc(F)c1NCCC(F)(F)F` [Example 15, 3-Fluoro-N-(2-methylbut-3-yn-2-yl)-2-(3,3,3-trifluoropropylamino)-benzamide]: it took 3000 nM to reach half-maximal inhibition (IC50).

On to `C#CC(C)(C)NC(=O)c1cccnc1Nc1ccccc1F` [Example 122, 2-(2-Fluorophenylamino)-N-(2-methylbut-3-yn-2-yl)nicotinamide], for which the IC50 is 4800 nM. In turn, `C#CC(C)(C)NC(=O)c1cc(F)c(F)cc1NC(C)C` [Example 67, 4,5-Difluoro-2-(isopropylamino)-N-(2-methylbut-3-yn-2-yl)benzamide] returned an IC50 of 5500 nM. For `C#CC(C)(NC(=O)c1cc(F)c(F)cc1NCC)C(C)C` (stereo not drawn) [Example 87, N-(3,4-Dimethylpent-1-yn-3-yl)-2-(ethylamino)-4,5-difluorobenzamide] the value was 600 nM; for `C#CC(C)(C)NC(=O)c1cccc2c(C)c(C)[nH]c12` [Example 118, 2,3-Dimethyl-N-(2-methylbut-3-yn-2-yl)-1H-indole-7-carboxamide], 12900 nM; for `C#CC(C)(C)NC(=O)c1cc(C(F)F)cnc1NC1CC(F)(F)C1` [Example 152, 2-(3,3-Difluorocyclobutylamino)-5-(difluoromethyl)-N-(2-methylbut-3-yn-2-yl)nicotinamide], 2400 nM. As for `C#CC(C)(C)NC(=O)c1cc(F)cnc1Nc1cccc(F)c1` [Example 175, 5-Fluoro-2-(3-fluorophenylamino)-N-(2-methylbut-3-yn-2-yl)nicotinamide], the IC50 was found to be 900 nM. In the case of `C#CC(C)(C)NC(=O)c1cc(F)c(F)cc1NCC(C)C` [Example 62, 4,5-Difluoro-2-(isobutylamino)-N-(2-methylbut-3-yn-2-yl)benzamide] it was 400 nM. For “5-Chloro-N-(2-methylbut-3-yn-yl)-2-(2,2,2-trifluoroethylamino)-nicotinamide [Example 34]” the value was 500 nM; for `C#CC(C)(C)NC(=O)c1cc(OC)ccc1NCCC(F)(F)F` [Example 76, 5-Methoxy-N-(2-methylbut-3-yn-2-yl)-2-(3,3,3-trifluoropropyl-amino)benzamide], 4700 nM; for `C#CC(C)(CC)NC(=O)c1cccnc1Nc1cc(F)cc(OC)c1` (stereo not drawn) [Example 166, 2-(3-Fluoro-5-methoxyphenylamino)-N-(3-methylpent-1-yn-3-yl)nicotinamide], 600 nM. In the case of `C#CC(CC)(CC)NC(=O)c1cc(I)ccc1NCCOC` [Example 47, N-(3-Ethylpent-1-yn-3-yl)-5-iodo-2-(2-methoxyethylamino)benzamide] it was 500 nM; in that of `C#CC(C)(C)NC(=O)c1cc(C(F)(F)F)cnc1NC1CC(F)(F)C1` [Example 141, 2-(3,3-Difluorocyclobutylamino)-N-(2-methylbut-3-yn-2-yl)-5-(trifluoromethyl)nicotinamide], 300 nM; in that of `C#CC(C)(C)NC(=O)c1ccsc1NCCCC` [Example 130, 2-(Butylamino)-N-(2-methylbut-3-yn-2-yl)thiophene-3-carboxamide], 2100 nM. Take `C#CC(C)(C)NC(=O)c1cc2c(cc1NCC(C)C)OCCO2` [Example 9, 7-(Isobutylamino)-N-(2-methylbut-3-yn-2-yl)-2,3-dihydrobenzo[b][1,4]dioxine-6-carboxamide]: the 50% inhibitory concentration (IC50) was 11200 nM.

Regarding `C#CC(C)(C)NC(=O)c1cc(Cl)ccc1NCC(F)F` [Example 5, 5-Chloro-2-(2,2-difluoroethylamino)-N-(2-methylbut-3-yn-2-yl)benzamide], half-maximal inhibition (IC50) required 5100 nM. `C#CC(C)(C)NC(=O)c1cc(C(F)(F)F)ccc1NC1CCC1` [Example 23, 2-(Cyclobutylamino)-N-(2-methylbut-3-yn-2-yl)-5-(trifluoromethyl)-benzamide] gave an IC50 of 100 nM.

`C#CC(C)(C)NC(=O)c1cc(SC)ccc1NCCC(F)(F)F` [Example 78, N-(2-Methylbut-3-yn-2-yl)-5-(methylthio)-2-(3,3,3-trifluoropropyl-amino)benzamide] displayed an IC50 of 800 nM.

With `C#CC(C)(CC)NC(=O)c1cccnc1Nc1cc(F)cc(F)c1` (stereo not drawn) [Example 186, 2-(3,5-Difluorophenylamino)-N-(3-methylpent-1-yn-3-yl)nicotinamide], half-maximal inhibition (IC50) was put at 200 nM. Compound `C#CC(C)(C)NC(=O)c1cncnc1Nc1ccc(C(F)(F)F)cc1` [Example 161, N-(2-Methylbut-3-yn-2-yl)-4-(4-(trifluoromethyl)phenylamino)-pyrimidine-5-carboxamide] displayed an IC50 of 1300 nM. `C#CC(C)(C)NC(=O)c1cnc(C(F)(F)F)nc1NCCC(F)(F)F` [Example 11, N-(2-Methylbut-3-yn-2-yl)-2-(trifluoromethyl)-4-(3,3,3-trifluoropropylamino)pyrimidine-5-carboxamide]: the IC50 came out at 3700 nM.

`C#CC(C)(C)NC(=O)c1cc(C)ccc1NCC(F)(F)F` [Example 40, 5-Methyl-N-(2-methylbut-3-yn-2-yl)-2-(2,2,2-trifluoroethylamino)-benzamide] came in with an IC50 of 2900 nM. Regarding `C#CC(C)(C)NC(=O)c1cc(F)cnc1NCC(C)(F)F` [Example 57, 2-(2,2-Difluoropropylamino)-5-fluoro-N-(2-methylbut-3-yn-2-yl)nicotinamide], the IC50 amounted to 4700 nM. Regarding `C#CC(C)(CC)NC(=O)c1cc(F)cnc1NC1CC(F)(F)C1` (stereo not drawn) [Example 164, 2-(3,3-Difluorocyclobutylamino)-5-fluoro-N-(3-methylpent-1-yn-3-yl)nicotinamide], it took 100 nM to reach half-maximal inhibition (IC50). Regarding `C#CC(C)(C)NC(=O)c1cc(OCC)ccc1NCCC` [Example 154, 5-Ethoxy-N-(2-methylbut-3-yn-2-yl)-2-(propylamino)benzamide], 7100 nM corresponded to half-maximal inhibition (IC50). For the compound `C#CC(C)(C)NC(=O)c1cc2c(cc1NCC(C)C)OCCCO2` [Example 8, 8-(Isobutylamino)-N-(2-methylbut-3 yn-2-yl)-3,4-dihydro-2H-benzo[b][1,4]dioxepine-7-carboxamide], it took 13000 nM to reach half-maximal inhibition (IC50).

As to `C#CC(CC)(CC)NC(=O)c1cc(F)c(F)cc1NCCOC` [Example 45, N-(3-Ethylpent-1-yn-3-yl)-4,5-difluoro-2-(2-methoxyethylamino)-benzamide], inhibition was half-maximal at 2000 nM (IC50). In turn, `C#CC(C)(C)NC(=O)c1cccnc1Nc1cc(OC)ccc1Cl` [Example 188, 2-(2-Chloro-5-methoxyphenylamino)-N-(2-methylbut-3-yn-2-yl)nicotinamide] yielded a concentration for half-maximal inhibition (IC50) of 16700 nM. Compound `C#CC(C)(C)NC(=O)c1ccc(C(F)(F)F)cc1NC` [Example 84, 2-(Methylamino)-N-(2-methylbut-3-yn-2-yl)-4-(trifluoromethyl)-benzamide] showed a half-inhibitory concentration (IC50) of 7500 nM. `C#CC(C)(C)NC(=O)c1cccnc1Nc1cc(Cl)cc(OC)c1` [Example 167, 2-(3-Chloro-5-methoxyphenylamino)-N-(2-methylbut-3-yn-2-yl)nicotinamide] registered an IC50 of 3200 nM. Compound `C#CC(C)(C)NC(=O)c1cc(F)c(N2CCOCC2)nc1NC(C)C` [Example 114, 5-Fluoro-2-(isopropylamino)-N-(2-methylbut-3-yn-2-yl)-6-morpholinonicotinamide] gave an IC50 of 4300 nM.

Consider `C#CC(C)(C)NC(=O)c1cc(F)c(F)cc1NCCC` [Example 63, 4,5-Difluoro-N-(2-methylbut-3-yn-2-yl)-2-(propylamino)benzamide], for which the IC50 stood at 3100 nM. As for `C#CC(C)(C)NC(=O)c1cc(Cl)cnc1NC(C)(C)C` [Example 155, 2-(tert-Butylamino)-5-chloro-N-(2-methylbut-3-yn-2-yl)nicotinamide], half-maximal inhibition (IC50) required 800 nM. For `C#CC(C)(C)NC(=O)c1ccncc1Nc1ccc(Cl)cc1` [Example 134, 3-((4-Chlorophenyl)amino)-N-(2-methylbut-3-yn-2-yl)isonicotinamide] the value was 4300 nM; for `C#CC(C)(C)NC(=O)c1ccc(F)cc1NC(C)C` [Example 83, 4-Fluoro-2-(isopropylamino)-N-(2-methylbut-3-yn-2-yl)benzamide], 2900 nM. As to `C#CC(C)(C)NC(=O)c1cnc(C(F)(F)F)nc1NC(C)(C)CC` [Example 109, N-(2-Methylbut-3-yn-2-yl)-4-(tert-pentylamino)-2-(trifluoromethyl)-pyrimidine-5-carboxamide], the IC50 was 5100 nM. `C#CC(C)(C)NC(=O)c1cccnc1NCCCC` [Example 100, 2-(Butylamino)-N-(2-methylbut-3-yn-2-yl)nicotinamide] showed a half-maximal inhibitory concentration (IC50) of 6600 nM. For `C#CC(C)(C)NC(=O)c1cccnc1NCCCc1ccccc1` [Example 143, N-(2-Methylbut-3-yn-2-yl)-2-(3-phenylpropylamino)nicotinamide] the value was 3800 nM. In the case of `C#CC(CC)(CC)NC(=O)c1cc(Cl)ccc1NCCOC` [Example 44, 5-Chloro-N-(3-ethylpent-1-yn-3yl)-2-(2-methoxyethylamino)-benzamide] it was 1300 nM. The compound `C#CC(C)(CC)NC(=O)c1cccnc1Nc1cccc(F)c1` (stereo not drawn) [Example 184, 2-(3-Fluorophenylamino)-N-(3-methylpent-1-yn-3-yl)nicotinamide] returned an IC50 of 200 nM. Turning to `C#CC(C)(C)NC(=O)c1ccc(OC)cc1NCCC` [Example 74, 4-Methoxy-N-(2-methylbut-3-yn-2-yl)-2-(propylamino)benzamide], half-maximal inhibition (IC50) required 7000 nM. Regarding `C#CC(C)(C)NC(=O)c1cc(F)cnc1NCC(F)(F)F` [Example 33, 5-Fluoro-N-(2-methylbut-3-yn-2-yl)-2-(2,2,2-trifluoroethylamino)-nicotinamide], half-maximal inhibition (IC50) required 3000 nM. In the case of `C#CC(C)(C)NC(=O)c1cc(F)ccc1NC1CCC1` [Example 24, 2-(Cyclobutylamino)-5-fluoro-N-(2-methylbut-3-yn-2-yl)benzamide], the concentration for half-maximal inhibition (IC50) is 1300 nM. On to `C#CC(CC)(CC)NC(=O)c1cc(F)cnc1NC1CC(F)(F)C1` [Example 163, 2-(3,3-Difluorocyclobutylamino)-N-(3-ethylpent-1-yn-3-yl)-5-fluoronicotinamide], for which half-maximal inhibition (IC50) required 100 nM. For `C#CC(C)(C)NC(=O)c1ccc(C(F)(F)F)nc1NC(C)(C)C` [Example 111, 2-(tert-Butylamino)-N-(2-methylbut-3-yn-2-yl)-6-(trifluoromethyl)-nicotinamide], the 50% inhibitory concentration (IC50) worked out at 2400 nM.
